Assays:
keratocytes [1] = test: Collagen synthesis: 3H-glycine incorporation into collagenase-sensitive protein; format: cell-based, bovine; settings: 3H-glycine 72 h
Procedure: Cell Culture—Keratocytes were isolated from adult bovine corneas using two sequential collagenase digestions as previously described (see Berryhill B L, Beales M P, and Hassell J R. Production of prostaglandin D synthase as a keratan sulfate proteoglycan by cultured bovine keratocytes Invest Ophthalmol Vis Sci. 2001; 42:1201-1207; which is incorporated herein by reference). Cells were plated in DMEM/F12 at high density (20,000 cells/cm^2) in 6-well plates (Costar, Cambridge, Mass.) and allowed to attach overnight at 37° C. in 5% CO2. The medium was changed the next day (day 1) and on days 4, 7 and 10 to fresh DMEM or DMEM supplemented with insulin (10 μg/ml), with or without 1 mM 2-phospho-L-ascorbic acid (ascorbate). Ethyl-3,4-dihydroxybenzoate (EDB) was added at 0.08 mM and 0.4 mM final concentration on day 1.
Collagen synthesis—The incorporation of ^3H-glycine into collagen was determined as previously described. In summary, cultures were incubated for 72 hours in medium containing 25 μCi ^3H-glycine/ml beginning on day 1. Media was adjusted to 4M guanidine HCl and the cell layers extracted in 4M guanidine HCl. Unincorporated isotope in media and cell layers was removed by chromatography on PD10 columns equilibrated and eluted with 4M guanidine HCl (GE Healthcare, Piscataway, N.J.). Fractions containing incorporated radioactivity were pooled, dialyzed against water and 400 μl aliquots incubated with or without 2.5 Units collagenase form III (Advanced Biofactures, Lynbrook, N.Y.) in collagenase digestion medium (3 mM N-ethyl maleimide, 50 mM Tris pH 7.5, 150 mM NaCl and 5 mM CaCl2) for 3 hours at 37° C. Undigested proteins were precipitated with carrier BSA using cold 10% TCA containing 0.5% tannic acid and released incorporated counts measured by liquid scintillation. The DNA content was determined as described above.

chondroitin sulfate = test: Incorporation of 35SO4 into chondroitin sulfate (chondroitinase ABC sensitive); format: cell-based, bovine; settings: 72 h labeling; medium; CPM per μg DNA; vs control
Source text: (§1) Cell Culture-Keratocytes were isolated from adult bovine corneas using two sequential collagenase digestions as previously described (see […], and […]. Production of prostaglandin D synthase as a keratan sulfate proteoglycan by cultured bovine keratocytes Invest Ophthalmol Vis Sci. 2001; 42:1201-1207; which is incorporated herein by reference). […] The medium was collected, frozen, lyophilized and reconstituted in 4 M guanidine HCl. Unincorporated isotope was removed using PD 10 columns Fractions containing incorporated ^35SO4 were combined and concentrated using Amicon Ultra spin-concentrators. Incorporation into CS and KS was determined by digestion with chondroitinase ABC or endo-β-galactosidase (Seikagaku, Associates of Cape Cod, E. Falmouth, Mass.) as previously described. Aliquots containing equivalent incorporated radioactivity were fractionated using a Superose 6 12/30 HR column (GE Healthcare, Piscataway, N.J.) equilibrated and eluted with 4M guanidine HCl (0.05 NaAc, pH6.5) at 0.3 ml/min Fractions (0.6 ml) were collected and incorporation measured by liquid scintillation counting. The levels of CS and KS in each fraction were determined as described above.

[2] = test system: prostaglandin D synthase (PGDS); test: Western blot of keratan sulfate proteoglycan accumulation in the medium: PGDS; format: cell-based, bovine
Procedure: Cell Culture-Keratocytes were isolated from adult bovine corneas using two sequential collagenase digestions as previously described (see […], and […]. Production of prostaglandin D synthase as a keratan sulfate proteoglycan by cultured bovine keratocytes Invest Ophthalmol Vis Sci. 2001; 42:1201-1207; which is incorporated herein by reference). […] Western blot analysis-Core protein and protein levels in the media were measured by Western blot as previously described. In brief, the culture media was collected from each culture condition, concentrated by spin filtration to one tenth or one fiftieth of the original volume. The size of the aliquot needed from each sample to provide a similar signal on film by Western blot was empirically determined. The measured pixel density was then divided by the DNA content of the culture equivalent to the amount loaded and expressed as pixel density per μg DNA. Blots were probed with polyclonal antibodies to bovine keratocan or lumican (diluted 1:1000) or prostaglandin D synthase (PGDS) (1:20,000). The lumican and keratocan antibodies are peptide antibodies raised against the core protein^48. The rabbit antiserum to bovine PGDS was a generous gift of Gary […] University). […] Band density was measured using a Bio-Rad GS-710 Calibrated Imaging Densitometer (Bio-Rad, Hercules, Calif.).

keratocytes [3] = test: Keratocyte population growth in defined media (DNA content, Cyquant); format: cell-based, bovine; settings: DMEM/F12; insulin 10 μg/ml, ascorbate 1 mM; days 1-10
Source text: Cell Culture-Keratocytes were isolated from adult bovine corneas using two sequential collagenase digestions as previously described (see […], and […]. Production of prostaglandin D synthase as a keratan sulfate proteoglycan by cultured bovine keratocytes Invest Ophthalmol Vis Sci. 2001; 42:1201-1207; which is incorporated herein by reference). […] DNA quantitation-Cell layers were harvested on days 1, 4, 7 and 10 to measure DNA content using Cyquant (Invitrogen, Carlsbad, Calif.). Briefly, the cell layers were rinsed with PBS, frozen, thawed and solubilized in a lysis buffer supplemented with a DNA binding dye. The DNA content was determined at 480/535 nm by measuring 4 wells in triplicate and comparing the values to a calf thymus DNA standard. The DNA content of parallel cultures was measured for experiments that utilized the cell layer. Cell proliferation-Cultures were radiolabeled with 20 μCi ^3H-thymidine/ml of medium for 72 hours beginning on days 1 and 4. The labeled medium was removed upon harvesting, and the cell layers washed with cold PBS. The cell layers were processed as described under DNA quantitation. Incorporation into DNA was determined as previously described.

keratocan = test: Western blot of keratan sulfate proteoglycan accumulation in the medium: keratocan; format: cell-based, bovine
Procedure: (§2) Cell Culture-Keratocytes were isolated from adult bovine corneas using two sequential collagenase digestions as previously described (see […], and […]. Production of prostaglandin D synthase as a keratan sulfate proteoglycan by cultured bovine keratocytes Invest Ophthalmol Vis Sci. 2001; 42:1201-1207; which is incorporated herein by reference). […] Western blot analysis-Core protein and protein levels in the media were measured by Western blot as previously described. In brief, the culture media was collected from each culture condition, concentrated by spin filtration to one tenth or one fiftieth of the original volume. The size of the aliquot needed from each sample to provide a similar signal on film by Western blot was empirically determined. The measured pixel density was then divided by the DNA content of the culture equivalent to the amount loaded and expressed as pixel density per μg DNA. Blots were probed with polyclonal antibodies to bovine keratocan or lumican (diluted 1:1000) or prostaglandin D synthase (PGDS) (1:20,000). The lumican and keratocan antibodies are peptide antibodies raised against the core protein^48. The rabbit antiserum to bovine PGDS was a generous gift of Gary […] University). Membranes were rinsed and incubated for 1 hour in 1:10,000 horseradish peroxidase (HRP)-conjugated secondary IgG (GE Healthcare, Piscataway, N.J.). Protein bands were visualized using ECL (GE Healthcare, Piscataway, N.J.) on Kodak Bio-Max XAR X-ray film. Band density was measured using a Bio-Rad GS-710 Calibrated Imaging Densitometer (Bio-Rad, Hercules, Calif.).

lumican = test: Western blot of keratan sulfate proteoglycan accumulation in the medium: lumican; format: cell-based, bovine
Procedure: as §2

collagen types I and V = test: Collagen helix stability: pepsin digestion of culture medium, SDS-PAGE; format: cell-based, bovine; settings: pepsin in 0.5M acetic acid
Procedure: Cell Culture-Keratocytes were isolated from adult bovine corneas using two sequential collagenase digestions as previously described (see […], and […]. Production of prostaglandin D synthase as a keratan sulfate proteoglycan by cultured bovine keratocytes Invest Ophthalmol Vis Sci. 2001; 42:1201-1207; which is incorporated herein by reference). […] Each sample received a second 50 μl aliquot from the pepsin stock, and digestion was allowed to continue for an additional six hours at 4° C. The samples were titrated with 1 N NaOH to pH 8.0 to inactivate the enzyme, dialyzed against water overnight, lyophilized, reconstituted in 1 X SDS running buffer and separated on 10% bis-tris gels under reducing conditions. The gels were stained with Safestain following the manufacturer's protocol.

keratan sulfate = test: Incorporation of 35SO4 into keratan sulfate (endo-β-galactosidase sensitive); format: cell-based, bovine; settings: 72 h labeling; medium; CPM per μg DNA; vs control
Source text: as §1

cells = settings: cited from earlier work
[4] = medium day 4, pixel density per μg DNA, vs control
[5] = 0.08 mM EDB in medium containing insulin and ascorbate, 72 hours, vs insulin+ascorbate
[6] = 0.4 mM EDB in medium containing insulin and ascorbate

Molecule	Total collagen synthesized, fold more compared to control (keratocytes [1]; day 1-4, insulin 10 μg/ml, ascorbate 1 mM, vs control medium) [fold]	Collagen in the cell layer, fold increase compared to control (keratocytes [1]; cell layer, vs control) [fold]	Collagen in the medium, fold increase compared to control (keratocytes [1]; medium, vs control) [fold]	35SO4 incorporation into CS, fold compared to control (chondroitin sulfate)	PGDS level in the medium [2, 4]	Cell number (DNA content) over 10-day culture period (keratocytes [3])	Keratocan level in the medium, fold increase compared to control (keratocan; [4])	Lumican level in the medium, fold increase compared to control (lumican; [4])	Pepsin-resistant collagen (α1(I), α2(I), α1(V) bands) in the medium (collagen types I and V; SDS-PAGE)	35SO4 incorporation into KS, fold compared to control (keratan sulfate)	PGDS level in the medium with EDB ([2]; EDB in medium containing insulin and ascorbate)	Toxicity to the cells (cells)	Reduction of keratocan accumulation (keratocan; [5]) [%]	Keratocan accumulation in the medium (keratocan; [6])	Reduction of lumican accumulation (lumican; [5]) [%]	Lumican accumulation in the medium (lumican; [6])	Pepsin-resistant collagen bands in the medium with EDB (collagen types I and V; 0.4 mM EDB in insulin plus ascorbate medium)
insulin: insulin added at 10 μg/ml to defined DMEM medium for keratocyte culture	4	5	3	only minor changes	neither ascorbate nor insulin affected PGDS levels	increased in number	no effect	no effect	absent	only minor changes	–	–	–	–	–	–	–
CCOC(=O)c1ccc(O)c(O)c1 [EDB, Ethyl-3,4-dihydroxybenzoate]	–	–	–	–	–	–	–	–	–	–	declined but the decrease was not significant	not toxic to the cells	28	levels below of those measured in insulin alone	19	levels below of those measured in insulin alone	absent
